The record followed here is US11713322B2, “Benzimidazole derivatives as ERBB tyrosine kinase inhibitors for the treatment of cancer” (Capella Therapeutics, Inc., priority 2014, dated 2023).

Structures are written as SMILES. Where only a bound is given, the exact number is not on record here.

Holding throughout (type): cell-based
The test system of experiment [1] is human epidermal keratinocytes, neonatal, or HEKn cells. The experiment can be described thus: Cell proliferation assay, HEKn (wild-type ERBB1). The conditions noted are these: Keratinocyte, 72 hrs compound treatment. As for the experimental part: (§1) The biological activity of a test compound was determined using cell proliferation assays. The activity against wild-type ERBB1 was determined using A431 human epidermoid carcinoma cells (ATCC) and human epidermal keratinocytes, neonatal, or HEKn cells (ATCC).
(§2) A431 cells were grown in DMEM (Invitrogen) supplemented with 10% FBS (Lonza), 1% penicillin-streptomycin, and 2 mM glutamine (Invitrogen). HEKn cells were grown in EPILIFE® (Invitrogen) supplemented with HKGS (Invitrogen). […] Cells were maintained and propagated at 37° C. and 5% CO2 in a humidified cell culture incubator. Aliquots of cells from early passages were preserved for liquid nitrogen storage. Frozen vials of cells were thawed at 37° C. water bath. Cells were spun to remove freezing medium. The newly revived frozen cells were adapted in culture for 10 days before used for compound testing. Cells used in the assay were less than 20 subculture passages or 3 months in culture.
(§3) The test compounds were dissolved in dimethylsulfoxide (DMSO) and stored at −20° C. before testing. […] The cells were placed in a culture incubator overnight. Next day, test compounds in DMSO were added to the cells and placed back in the culture incubator for 72 hrs. In the meantime, the cell numbers at time zero of the compound treatment (T0) was measured by EnerCount (Codex BioSolutions). At the end of the compound treatment, the cell numbers were again measured by EnerCount as T72 values. The untreated controls (Ctrl) were cell numbers recorded from the 0.1% DMSO treatment. The percent growth inhibition by the test compound was calculated by the formula: (1−(T72−T0)/(Ctrl−T0))×100.
(§4) The results are summarized in Tables 1 and 2, wherein A represents a value no greater than 500 nM, B represents a value greater than 500 nM but no greater than 1 μM, C represents a value greater than 1 μM but no greater than 5 μM, and D represents a value greater than 5 μM; and wherein A′ represents a ratio of greater than 10, B′ represents a ratio of no greater than 10 but no less than 5, C′ represents a ratio of no greater than 5 but no less than 2, and D′ represents a ratio of no greater than 2.

The test system of experiment [2] is H1975 human NSCLC adenocarcinoma cells. As to the kind of experiment: Cell proliferation assay, H1975 (drug-resistant mutant ERBB1, T790M/L858R). To be noted: for GI50: Homo sapiens, NCI-H1975, 72 hrs compound treatment. As to the method: as §1, §2, §3, §4
Experiment [3] has as its system A431 human epidermoid carcinoma cells. The experiment can be described thus: Cell proliferation assay, A431 (wild-type ERBB1). The conditions noted are these: A-431, 72 hrs compound treatment, class symbols. As to the method: as §1, §2
as §3, with “(1−(T72−T0)/(Ctrl−T0))×100. […]” for “(1−(T72−T0)/(Ctrl−T0))×100.”

Experiment [4] relates to HCC827 human NSCLC adenocarcinoma cells. The experiment can be described thus: Cell proliferation assay, HCC827 (mutant ERBB1, exon 19 deletion). To be noted: for GI50: Homo sapiens, HCC827, 72 hrs compound treatment. As to the method:
as §1, §2, §3, §4

By GI50 is commonly meant the concentration at which growth is held to half of that of the control. For `C=CC(=O)N1CCCC[C@@H](n2c(NC(=O)c3ccnc(C(F)(F)F)c3)nc3ccc4c(c32)OCCO4)C1` [B1, (R)—N-(1-(1-acryloylazepan-3-yl)-7,8-dihydro-1H-[1,4]dioxino[2′,3′:3,4]benzo[1,2-d]imidazol-2-yl)-2-(trifluoromethyl)isonicotinamide], the GI50 is greater than 5000 nM in experiment [1] (class symbols), less than 500 nM in experiment [2] (class symbols), 1000 to 5000 nM in experiment [3] and less than 500 nM in experiment [4] (class symbols).

For `C=CC(=O)N1CCCC[C@@H](n2c(NC(=O)c3ccnc(OC)c3)nc3ccc4c(c32)OCCO4)C1` [C2, (R)—N-(1-(1-acryloylazepan-3-yl)-7,8-dihydro-1H-[1,4]dioxino[2′,3′:3,4]benzo[1,2-d]imidazol-2-yl)-2-methoxyisonicotinamide], the GI50 in experiment [1] (class symbols) was 1000 to 5000 nM; in experiment [2] (class symbols), less than 500 nM; in experiment [3], 1000 to 5000 nM; in experiment [4] (class symbols) it was less than 500 nM.

For the compound `C=CC(=O)N1CCCC[C@@H](n2c(NC(=O)c3ccnc(C)c3)nc3ccc4c(c32)OCCO4)C1` [C1, (R)—N-(1-(1-acryloylazepan-3-yl)-7,8-dihydro-1H-[1,4]dioxino[2′,3′:3,4]benzo[1,2-d]imidazol-2-yl)-2-methylisonicotinamide], the GI50 was 1000 to 5000 nM in experiment [1] (class symbols), less than 500 nM in experiment [2] (class symbols), 1000 to 5000 nM in experiment [3] and less than 500 nM in experiment [4] (class symbols).

For `C=CC(=O)Nc1cccc(Nc2nc(Nc3ccc(N4CCN(C(C)=O)CC4)cc3OC)ncc2C(F)(F)F)c1` [CO-1686, reference compound], the GI50 in experiment [1] (numeric values, unit inferred) stood at 2500 nM; in experiment [2] (numeric values, unit inferred), 109 nM; in experiment [4] (numeric values, unit inferred), 32 nM. In addition, the “Selectivity Ratio (Wild-type ERBB1/Mutant ERBB1) HEKn/H1975” value in experiment [2] (ratio of GI50 HEKn/H1975) is “A′ (A′ represents a ratio of greater than 10)”. Also, in experiment [4] (ratio of GI50 HEKn/HCC827), the “Selectivity Ratio (Wild-type ERBB1/Mutant ERBB1) HEKn/HCC827” value is given as “A′ (A′ represents a ratio of greater than 10)”.
